The values below are quoted from earlier work in patent publication US20080124416A1 (RENAISSANCE HERBS, INC., priority 2006, published 2008).

Series [1] has as its system human lens epithelial (HLE) cells. Conditions: in vitro.
For series [2], the system named is hepatic fibrosis. Conditions: 12.5 or 25 mg/kg p.o.
The conditions of series [3]: in vitro.
The conditions of series [4]: in vivo.
The subject of series [5] is diabetes (streptozotocin-induced). As to conditions: oral, 50 or 100 μg/kg/day for 14 days.
In series [6] the test system is rat cortical and trabecular bone tissues.
Series [7] relates to osteoblastic MC3T3-E1 cells.
Series [8] has as its system mouse marrow cultures.
Series [9] deals with cultured bone cells from the femoral tissues. As to conditions: micromole amounts.

For `CC1=C(/C=C/C(C)=C/C=C/C(C)=C/C=C/C=C(C)/C=C/C=C(C)/C=C/C2=C(C)C[C@@H](O)CC2(C)C)C(C)(C)C[C@H](O)C1` [zeaxanthin], in [1], the “UVB light-induced lipid peroxidation” value was “inhibits”. In series [2], the “TBARS, collagen deposition, 4-hydroxyproline levels, serum ALP and AST” value is reported as “significantly decreased”; the “activities of glutathione-S-transferase and glutathione” value was “significantly increased”. Further, the “antioxidative activity against A2-PE, a pro-oxidant protein in retinal pigment cells” value in [3] is on record as “antioxidative activity”.

`CCCCCCCCCCCCCCCC(=O)O[C@@H]1CC(C)=C(/C=C/C(C)=C/C=C/C(C)=C/C=C/C=C(C)/C=C/C=C(C)/C=C/C2=C(C)CCCC2(C)C)C(C)(C)C1` [β-Cryptoxanthinpalmitate]: in series [4], the “human bioavailability of esterified vs free form” value is “comparable”.

Regarding `CC1=C(/C=C/C(C)=C/C=C/C(C)=C/C=C/C=C(C)/C=C/C=C(C)/C=C/C2=C(C)C[C@@H](O)CC2(C)C)C(C)(C)CCC1` [β-cryptoxanthin], in [5], the “symptoms of diabetes (serum glucose, triglycerides, calcium, body weight, bone loss)” value is recorded as “significantly attenuate”. In addition, the “decrease in calcium content induced by prostaglandin E2 and parathyroid hormone” value in series [6] is “completely inhibits”. Moreover, in [7], the “transcriptional activity, proliferation, cell differentiation and mineralization” value was “stimulates”. In addition, the “osteoblast-like cell formation induced by bone-resorbing factors” value in [8] is “potently inhibits”. The “alkaline phosphatase activity and calcium content” value in series [9] was “significantly increases”.
